Measurements as given in patent publication US20010029636A1, “Hair bleaching and colouring compositions” (priority 1999, published 2001).

Test: Cuticle abrasion method after bleaching of hair switches
Conditions: solution 2 versus solution 1
Method: The bleaching solutions 1 and 2 were each divided into three parts A, B and C. A was adjusted to pH 9.7, B to pH 10.1 and C to pH 10.5. Each solution was adjusted to the required pH with ammonium hydroxide (ex sigma, 28.1% active). The six solutions were each dosed (1.6 ml/g hair) onto a separate Spanish hair switch (8 g, 8″, ex Hugo Royer Hair Suppliers) in a disposable petri dish using an automatic pipette. Each switch was then agitated for 90 sec using a spoon ended plastic spatula. […] Each switch was then rinsed and left to dry naturally. Step 3: Cuticle Abrasion Method This method provides a measure of the extent of hair damage following the bleaching step. […] Rinse and repeat. The base wash used is 12% SLES, 2% CAPB in water. Dry them overnight. […] Record the initial weight of the hair. Add 200 ml of distilled water to the blender, making sure that the hair is covered with water. […] Transfer the liquid to a fresh tube. Wash the blender and add this, to the tube, as well. Pour the supernatant in 4×50 ml centrifuge tubes and centrifuge at 4300 rpm for 10 mins, 22° C. Pour the pellet on the filters, wash the tube and add this as well. Transfer the supernatant to centrifuge tubes and centrifuge at 4300 rpm for 10 min. Transfer the pellet to a beaker, wash the tube 2-3 times and top with water until 50 ml. Freeze them until solid. Freeze dry them for 24 hours in Modulyo freeze drier. Once dry, weigh amount of cuticle recovered. Final measure is calculated as follows: […] This measure provides the % weight of cuticle abraded from the hair fibres which reflects the state of damage of the hair tested. Thus the greater amount of cuticle recovered the more damaged the tested hair.

## CC(C)CCC[C@@H](C)[C@H]1CC[C@H]2[C@@H]3CC=C4C[C@@H](O)CC[C@]4(C)[C@H]3CC[C@]12C [cholesterol]
pH 9.7
  % reduction in damage of hair when cholesterol present: 3.95%
pH 10.1
  % reduction in damage of hair when cholesterol present: 12.211%
pH 10.5
  % reduction in damage of hair when cholesterol present: 30.902%
